Reference: patent EP0009728A1, “Hemostatic and platelet increasing agent containing alpha, beta-diaminopropionic acid and derivatives thereof” (Hokuriku Pharmaceutical Co.,Ltd, priority 1978, dated 1980)

How the values were obtained:
[1] = Toxicity / neurotoxic activity (no method described)
Male mice = assay: Hemostatic test (bleeding time after wounding the tail vein); format: in vivo; conditions: for rate of shortening bleeding time (shortened rate): summary in the description; for Bleeding Time (mean±S.E.) After Administration / Shortened Time (mean±S.E.) / Shortened Rate: Table 7; for Bleeding Time (mean±S.E.) After Administration / Shortened Time (mean±S.E.): mean of five tests, dose not stated; for Shortened Rate: shortened time relative to bleeding time before administration
Description: The present invention will be described in more detail with reference to the examples below, in which hemostatic test was performed as follows:
Male mice weighing 15 to 20 g. were intraperitoneously given with 0.5 ml. of a Locke solution. The mice-.were holded on a mouse holder 10 minutes after the administration, where the left vein of the tail at the middle of the tail (3 to 4 cm. from the root of the tail) was wounded with a knife to bleed. A filter paper was softly touched with the incised wound at the interval of 30 seconds and observation was made if blood was transferred onto the filter paper. Time until blood was not transferred onto the filter paper was measured and was made a bleeding time for control
Subsequently, a test compound dissolved in 0.5 ml. of a Locke solution was intraperitoneously administered to the same mice. The mice were holded onto a mouse holder 10 minutes after the administration. The right vein at the middle of the tail was wounded with a knife and a bleeding time was measured as in control described above.
A difference in bleeding time between the control and the test compound was made a shortened time for bleed-stopping.

platelet = assay: Platelet-increasing activity (platelet count, Fonio direct method); format: in vivo, mice; conditions: for increase of the number of platelet versus control: 1 mg/0.5 ml./body i.p., 10 mins. after administration, versus Ringer-Locke control
Description: Platelet-Increasing Activity: • The compound having the formula shown in Example 1 was intraperitoneously administered to ddY female ten(10) mice as one grouping at the dose of 1 mg/0.5 ml./body in the form of a Ringer-Locke solution (1 mg. of the compound was dissolved in a Ringer-Locke solution). One eyeball was isolated 10 mins. after the administration to bleed. Blood was collected and the number of platelet was measured according to a direct method (Fonio original method), details of which are described in Dsch. Z. Schr. Chir., vol. 117, page 176 (1912).
As a control group, a Ringer-Locke solution was intraperitoneously administered at the dose of 0.5 ml/body for comparison.
Activity on Platelet-Increase: • The procedure similar to Example 3 was repeated except that the compound of Example 3 was used instead of the compound of Example 1.

| SMILES | neurotoxic side effect / neurotoxic activity (in words) [1] | rate of shortening bleeding time (shortened rate) (Male mice) [%] | increase of the number of platelet versus control (platelet; ddY female mice) | Number of Platelet (platelet; Table 6, same procedure as Table 4 (1 mg/0.5 ml./body i.p., ddY female mice)) | Bleeding Time (mean±S.E.) After Administration (Male mice) [s] | Shortened Time (mean±S.E.) (Male mice) | Shortened Rate (Male mice) [%] | Number of Platelet (platelet; Table 4, 1 mg/0.5 ml./body i.p. in Ringer-Locke solution, ddY female mice, 10 per group, blood 10 mins. after administration) | toxicity relative to that of the oxalyl derivative ([1]; compared with L-N-β-oxalyl-α, β-diaminopropionic acid) | increase of the number of platelet as compared to a control (platelet; dose not stated) |
| --- | --- | --- | --- | --- | --- | --- | --- | --- | --- | --- |
| N[C@H](CNC(=O)C(=O)O)C(=O)O [Compound of Example 3, D-N-β-Oxalyl- α, β -diaminopropionic acid] | slighter in neurotoxic activity | 35 | ~24% | 68.0 ± 7.35 10,000/mm^3 | – | – | – | – | – | – |
| N[C@@H](CNC(=O)C(=O)O)C(=O)O [compound of Example 1, L-N-β-oxalyl-α,β-diaminopropionic acid] | does not exhibit neurotoxic side effect | 35 | about 30% | – | 354 ± 45 | 192 ± 36 s | 35.16 | 69.6 ± 6.31 10,000/mm^3 | – | – |
| NC[C@H](N)C(=O)O [α,β-diaminopro-pionic acid, L-α, β-diaminopropionic acid] | – | 44 | – | – | 306 ± 37 | 240±33 p<0.05 second | 43.96 | – | about 1/5 | about 17% |
